Among the targets are DDR1 (Homo sapiens, UniProt Q08345); KIT-autoinhibited (Homo sapiens, UniProt P10721); PRKCH (Homo sapiens, UniProt P24723); VRK2 (Homo sapiens, UniProt Q86Y07).
What all share (assay): biochemical
What all share (design): DiscoveRx KINOMEscan active site-directed competition binding; percent of control kinase bound to immobilised ligand

The next assay has as its target T1, MST4 (Homo sapiens, UniProt Q9P289).
T1 construct: gene STK26

A further assay has as its target T2, PIP5K2C (Homo sapiens, UniProt Q8TBX8).
T2 construct: gene PIP4K2C
T2 sequence (Q8TBX8 1-421): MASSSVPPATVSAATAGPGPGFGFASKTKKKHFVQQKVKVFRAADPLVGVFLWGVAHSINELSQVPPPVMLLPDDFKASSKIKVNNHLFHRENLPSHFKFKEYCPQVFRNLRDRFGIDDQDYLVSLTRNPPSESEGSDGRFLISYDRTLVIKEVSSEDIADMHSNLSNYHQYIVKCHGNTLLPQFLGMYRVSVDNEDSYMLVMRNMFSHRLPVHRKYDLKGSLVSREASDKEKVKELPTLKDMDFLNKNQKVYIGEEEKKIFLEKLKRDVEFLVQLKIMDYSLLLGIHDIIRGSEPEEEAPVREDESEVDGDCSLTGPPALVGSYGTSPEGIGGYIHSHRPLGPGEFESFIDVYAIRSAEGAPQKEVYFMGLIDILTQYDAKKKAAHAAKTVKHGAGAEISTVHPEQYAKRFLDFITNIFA

Another assay addresses T3, ASK2 (Homo sapiens, UniProt O95382).
T3 construct: gene MAP3K6
T3 sequence (O95382 1-1288): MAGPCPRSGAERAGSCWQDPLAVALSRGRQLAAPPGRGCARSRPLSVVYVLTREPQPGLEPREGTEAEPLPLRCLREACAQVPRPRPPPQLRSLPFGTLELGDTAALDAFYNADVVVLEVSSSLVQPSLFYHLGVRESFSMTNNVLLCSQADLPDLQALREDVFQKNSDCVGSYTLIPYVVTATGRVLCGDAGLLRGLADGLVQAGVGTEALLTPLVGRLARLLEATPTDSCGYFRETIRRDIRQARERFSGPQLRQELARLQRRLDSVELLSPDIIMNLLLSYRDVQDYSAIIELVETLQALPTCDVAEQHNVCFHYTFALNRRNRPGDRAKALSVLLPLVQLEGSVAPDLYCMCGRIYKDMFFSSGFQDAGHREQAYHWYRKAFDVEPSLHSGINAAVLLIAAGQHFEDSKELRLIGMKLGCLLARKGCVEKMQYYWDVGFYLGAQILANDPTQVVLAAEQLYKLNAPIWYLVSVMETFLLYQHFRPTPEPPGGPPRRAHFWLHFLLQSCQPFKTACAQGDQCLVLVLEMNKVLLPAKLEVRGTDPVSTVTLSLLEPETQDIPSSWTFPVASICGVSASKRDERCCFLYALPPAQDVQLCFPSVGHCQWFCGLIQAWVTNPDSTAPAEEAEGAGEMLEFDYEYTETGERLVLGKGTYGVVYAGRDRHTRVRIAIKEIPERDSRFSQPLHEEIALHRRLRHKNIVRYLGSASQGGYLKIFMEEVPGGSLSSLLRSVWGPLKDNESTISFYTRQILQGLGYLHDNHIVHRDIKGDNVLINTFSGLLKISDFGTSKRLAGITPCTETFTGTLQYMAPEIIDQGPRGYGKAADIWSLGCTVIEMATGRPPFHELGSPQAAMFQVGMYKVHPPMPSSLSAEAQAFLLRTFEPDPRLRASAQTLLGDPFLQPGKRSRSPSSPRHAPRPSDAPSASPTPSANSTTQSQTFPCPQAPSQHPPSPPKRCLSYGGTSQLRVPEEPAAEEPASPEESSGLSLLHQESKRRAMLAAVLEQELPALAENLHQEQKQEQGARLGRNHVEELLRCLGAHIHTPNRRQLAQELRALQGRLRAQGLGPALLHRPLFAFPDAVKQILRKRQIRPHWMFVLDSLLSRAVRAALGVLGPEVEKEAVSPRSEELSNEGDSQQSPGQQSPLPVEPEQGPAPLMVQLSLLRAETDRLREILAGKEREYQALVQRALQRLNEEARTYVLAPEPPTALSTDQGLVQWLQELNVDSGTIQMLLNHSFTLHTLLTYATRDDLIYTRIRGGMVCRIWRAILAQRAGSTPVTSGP

The next assay has as its target T4, MEK4 (Homo sapiens, UniProt P45985).
T4 construct: gene MAP2K4
T4 sequence (P45985 1-399): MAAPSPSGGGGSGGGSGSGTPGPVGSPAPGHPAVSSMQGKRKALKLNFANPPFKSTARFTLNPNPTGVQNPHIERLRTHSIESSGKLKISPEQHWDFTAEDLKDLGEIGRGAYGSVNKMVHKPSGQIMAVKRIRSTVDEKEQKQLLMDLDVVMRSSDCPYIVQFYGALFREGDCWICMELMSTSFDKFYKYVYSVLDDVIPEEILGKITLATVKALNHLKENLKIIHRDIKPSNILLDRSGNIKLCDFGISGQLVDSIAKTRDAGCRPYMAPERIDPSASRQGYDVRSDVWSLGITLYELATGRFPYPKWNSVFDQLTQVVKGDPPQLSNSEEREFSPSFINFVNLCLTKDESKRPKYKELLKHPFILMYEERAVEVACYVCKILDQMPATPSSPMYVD

The mark [1] stands for this setting: read-out: Niraparib (MK-4827) / %Ctrl @ 10000nM.
The mark [2] stands for this setting: read-out: Olaparib / %Ctrl @ 10000nM.
Setting [3] is: read-out: Rucaparib / %Ctrl @ 10000nM, binding competition, % of control.
The mark [4] stands for this setting: read-out: Talazoparib (BMN 673) / %Ctrl @ 10000nM.

Read-outs that look alike come from different tables or passages of the source.

Sequence of DDR1 (Q08345 whole entry): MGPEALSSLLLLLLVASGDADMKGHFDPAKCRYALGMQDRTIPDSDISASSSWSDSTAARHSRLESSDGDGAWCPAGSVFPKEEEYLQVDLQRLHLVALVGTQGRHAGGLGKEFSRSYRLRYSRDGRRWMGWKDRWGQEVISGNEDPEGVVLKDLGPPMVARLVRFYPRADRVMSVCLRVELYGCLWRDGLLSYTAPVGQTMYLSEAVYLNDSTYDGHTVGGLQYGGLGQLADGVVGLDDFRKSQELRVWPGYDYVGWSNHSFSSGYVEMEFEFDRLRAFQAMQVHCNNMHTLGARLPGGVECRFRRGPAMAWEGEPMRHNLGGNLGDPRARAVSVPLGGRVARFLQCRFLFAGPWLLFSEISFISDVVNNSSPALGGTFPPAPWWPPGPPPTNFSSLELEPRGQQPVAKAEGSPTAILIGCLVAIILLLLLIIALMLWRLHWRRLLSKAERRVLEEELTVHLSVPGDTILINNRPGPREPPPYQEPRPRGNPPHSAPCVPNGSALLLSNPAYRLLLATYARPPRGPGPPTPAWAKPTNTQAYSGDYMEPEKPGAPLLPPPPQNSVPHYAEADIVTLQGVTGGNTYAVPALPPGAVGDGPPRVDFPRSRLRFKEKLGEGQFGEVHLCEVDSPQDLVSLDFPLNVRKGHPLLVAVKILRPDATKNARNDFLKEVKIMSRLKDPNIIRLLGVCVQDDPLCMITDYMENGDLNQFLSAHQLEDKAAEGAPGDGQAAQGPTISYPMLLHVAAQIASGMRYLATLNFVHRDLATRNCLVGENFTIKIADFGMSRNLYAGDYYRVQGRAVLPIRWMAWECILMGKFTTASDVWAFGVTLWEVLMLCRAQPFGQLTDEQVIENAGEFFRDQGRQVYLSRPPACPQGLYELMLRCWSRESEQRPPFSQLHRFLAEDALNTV
Sequence of KIT-autoinhibited (P10721 whole entry): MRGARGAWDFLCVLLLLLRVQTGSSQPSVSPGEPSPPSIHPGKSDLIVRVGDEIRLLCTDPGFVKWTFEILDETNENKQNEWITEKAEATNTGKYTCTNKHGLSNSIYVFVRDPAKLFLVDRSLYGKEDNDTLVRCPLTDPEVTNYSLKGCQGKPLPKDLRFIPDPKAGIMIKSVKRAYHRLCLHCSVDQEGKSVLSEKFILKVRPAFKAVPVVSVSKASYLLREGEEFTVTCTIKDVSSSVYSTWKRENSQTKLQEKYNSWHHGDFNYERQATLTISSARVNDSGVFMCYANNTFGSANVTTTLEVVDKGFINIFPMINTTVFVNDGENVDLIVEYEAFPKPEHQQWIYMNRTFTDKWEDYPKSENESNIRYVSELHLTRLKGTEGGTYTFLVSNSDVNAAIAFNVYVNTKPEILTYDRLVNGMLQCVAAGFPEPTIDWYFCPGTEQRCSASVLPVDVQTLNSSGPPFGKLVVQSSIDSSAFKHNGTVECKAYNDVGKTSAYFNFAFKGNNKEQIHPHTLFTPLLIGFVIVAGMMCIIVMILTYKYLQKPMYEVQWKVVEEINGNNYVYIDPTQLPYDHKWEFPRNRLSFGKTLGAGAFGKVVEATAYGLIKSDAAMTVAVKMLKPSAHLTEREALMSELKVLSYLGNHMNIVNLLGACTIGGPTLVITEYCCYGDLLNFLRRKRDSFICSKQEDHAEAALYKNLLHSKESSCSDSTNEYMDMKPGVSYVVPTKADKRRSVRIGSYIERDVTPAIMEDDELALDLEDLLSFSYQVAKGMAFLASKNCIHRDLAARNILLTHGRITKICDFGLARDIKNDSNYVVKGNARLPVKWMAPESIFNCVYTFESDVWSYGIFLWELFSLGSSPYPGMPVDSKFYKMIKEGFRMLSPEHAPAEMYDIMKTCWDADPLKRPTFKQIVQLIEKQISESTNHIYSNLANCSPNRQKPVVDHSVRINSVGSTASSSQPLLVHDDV
T1 sequence (Q9P289 whole entry): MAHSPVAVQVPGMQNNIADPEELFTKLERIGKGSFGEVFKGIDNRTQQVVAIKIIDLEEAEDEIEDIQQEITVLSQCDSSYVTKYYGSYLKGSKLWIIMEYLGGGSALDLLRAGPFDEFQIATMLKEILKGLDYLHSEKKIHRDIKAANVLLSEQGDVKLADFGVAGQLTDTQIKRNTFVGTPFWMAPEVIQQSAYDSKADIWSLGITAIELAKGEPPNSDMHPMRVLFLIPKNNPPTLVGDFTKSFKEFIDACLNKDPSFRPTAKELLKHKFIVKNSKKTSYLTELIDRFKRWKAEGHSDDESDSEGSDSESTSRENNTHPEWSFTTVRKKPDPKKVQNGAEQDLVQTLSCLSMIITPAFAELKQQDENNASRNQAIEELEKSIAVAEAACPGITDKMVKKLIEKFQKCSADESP
Sequence of VRK2 (Q86Y07 whole entry): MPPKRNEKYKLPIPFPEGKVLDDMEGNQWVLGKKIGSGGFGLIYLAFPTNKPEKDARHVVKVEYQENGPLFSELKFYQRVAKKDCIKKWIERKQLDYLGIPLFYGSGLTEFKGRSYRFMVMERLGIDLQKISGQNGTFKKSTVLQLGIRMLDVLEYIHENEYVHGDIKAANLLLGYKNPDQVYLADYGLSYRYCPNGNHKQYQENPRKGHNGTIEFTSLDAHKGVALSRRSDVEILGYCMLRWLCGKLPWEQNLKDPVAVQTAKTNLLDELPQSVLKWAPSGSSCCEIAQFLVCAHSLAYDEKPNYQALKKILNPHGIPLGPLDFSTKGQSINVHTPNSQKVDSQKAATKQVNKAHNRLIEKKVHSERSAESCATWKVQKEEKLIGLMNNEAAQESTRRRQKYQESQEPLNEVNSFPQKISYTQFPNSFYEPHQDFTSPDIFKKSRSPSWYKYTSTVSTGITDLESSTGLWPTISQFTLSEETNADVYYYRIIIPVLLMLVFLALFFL
Sequence of PRKCH (P24723 whole entry): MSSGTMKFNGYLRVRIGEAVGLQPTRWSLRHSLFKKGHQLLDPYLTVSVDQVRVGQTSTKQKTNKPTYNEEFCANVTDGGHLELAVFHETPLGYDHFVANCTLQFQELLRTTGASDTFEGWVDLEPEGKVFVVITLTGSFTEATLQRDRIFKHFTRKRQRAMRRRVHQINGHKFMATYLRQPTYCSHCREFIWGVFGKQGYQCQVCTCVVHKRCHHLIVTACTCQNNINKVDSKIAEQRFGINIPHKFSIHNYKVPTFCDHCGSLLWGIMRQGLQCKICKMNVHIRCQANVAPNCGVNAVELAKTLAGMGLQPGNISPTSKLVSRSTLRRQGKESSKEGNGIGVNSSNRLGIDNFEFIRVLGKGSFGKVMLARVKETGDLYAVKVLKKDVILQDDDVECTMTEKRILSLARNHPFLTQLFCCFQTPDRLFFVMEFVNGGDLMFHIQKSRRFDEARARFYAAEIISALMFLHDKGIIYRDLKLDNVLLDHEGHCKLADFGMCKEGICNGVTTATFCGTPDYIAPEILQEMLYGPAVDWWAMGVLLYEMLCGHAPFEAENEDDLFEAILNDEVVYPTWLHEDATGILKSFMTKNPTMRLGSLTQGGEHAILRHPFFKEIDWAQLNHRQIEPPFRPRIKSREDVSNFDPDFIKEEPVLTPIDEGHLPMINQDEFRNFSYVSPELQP

`NC(=O)c1cccc2cn(-c3ccc([C@@H]4CCCNC4)cc3)nc12` [Niraparib]: the percent of control binding at 10 µM amounted to 85% at DDR1 (setting [1]); 64% on MST4 (setting [1]); 85% on KIT-autoinhibited (setting [1]); 78% at PIP5K2C (setting [1]); 98% on ASK2 (setting [1]); 82% at MEK4 (setting [1]). The percent of control binding at 10 µM at PRKCH (setting [1]) came out at 85%; on VRK2 (setting [1]), 65%.

Consider `O=C(c1cc(Cc2n[nH]c(=O)c3ccccc23)ccc1F)N1CCN(C(=O)C2CC2)CC1` [Olaparib], for which the percent of control binding at 10 µM on DDR1 (setting [2]) is 77%; at MST4 (setting [2]) it was 91%; at KIT-autoinhibited (setting [2]) it was 93%; at PIP5K2C (setting [2]), 98%; on ASK2 (setting [2]), 80%; at MEK4 (setting [2]) it was 80%. For the same molecule, the percent of control binding at 10 µM on PRKCH (setting [2]) worked out at 94%; on VRK2 (setting [2]) it was 99%.

On to `CNCc1ccc(-c2[nH]c3cc(F)cc4c3c2CCNC4=O)cc1` [Rucaparib], for which the percent of control binding at 10 µM on DDR1 (setting [3]) is 96%; at MST4 (setting [3]) it was 67%; at KIT-autoinhibited (setting [3]), 68%; on PIP5K2C (setting [3]), 83%; at ASK2 (setting [3]) it was 77%; on MEK4 (setting [3]), 69%. Besides, the percent of control binding at 10 µM came out at 94% at PRKCH (setting [3]) and 95% on VRK2 (setting [3]).

For `Cn1ncnc1[C@H]1c2n[nH]c(=O)c3cc(F)cc(c23)N[C@@H]1c1ccc(F)cc1` [Talazoparib], the percent of control binding at 10 µM on DDR1 (setting [4]) stood at 84%; at MST4 (setting [4]), 89%; on KIT-autoinhibited (setting [4]), 100%; on PIP5K2C (setting [4]) it was 100%; at ASK2 (setting [4]), 85%; on MEK4 (setting [4]), 99%. In addition, the percent of control binding at 10 µM is 98% at PRKCH (setting [4]) and 100% at VRK2 (setting [4]).

The values are drawn from article PMC7026418, “The kinase polypharmacology landscape of clinical PARP inhibitors” (Scientific Reports, 2020).
